Results on 25 compounds are retold here after patent US10730874B2 (Shire Human Genetic Therapies, Inc., priority 2018, dated 2020).

Some results are limits rather than exact numbers.

human activated kallikrein enzyme (plasma kallikrein), sequence (P03952 391-638): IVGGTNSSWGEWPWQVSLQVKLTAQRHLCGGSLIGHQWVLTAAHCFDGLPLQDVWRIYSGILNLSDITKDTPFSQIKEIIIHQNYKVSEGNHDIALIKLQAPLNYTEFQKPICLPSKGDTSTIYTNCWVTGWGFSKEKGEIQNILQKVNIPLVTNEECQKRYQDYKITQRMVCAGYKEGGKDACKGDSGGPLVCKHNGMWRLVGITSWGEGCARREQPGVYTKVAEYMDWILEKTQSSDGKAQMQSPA
human activated kallikrein enzyme (plasma kallikrein), sequence (P03952 20-390 partner): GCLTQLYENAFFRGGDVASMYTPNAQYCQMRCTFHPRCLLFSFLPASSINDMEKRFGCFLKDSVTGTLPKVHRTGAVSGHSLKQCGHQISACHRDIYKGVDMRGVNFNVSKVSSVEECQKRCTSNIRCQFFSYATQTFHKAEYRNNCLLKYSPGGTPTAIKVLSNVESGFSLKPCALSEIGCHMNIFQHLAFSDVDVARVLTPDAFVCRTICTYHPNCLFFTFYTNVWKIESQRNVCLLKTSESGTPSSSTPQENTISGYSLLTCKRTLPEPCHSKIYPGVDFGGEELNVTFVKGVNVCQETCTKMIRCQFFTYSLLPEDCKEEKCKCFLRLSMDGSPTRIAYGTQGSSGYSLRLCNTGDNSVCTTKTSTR

The target of this assay is human activated kallikrein enzyme (plasma kallikrein) (Homo sapiens (Human), UniProt P03952). In words: Inhibition of human activated plasma kallikrein, fluorogenic peptide substrate assay, 500 pM enzyme format. The class given is biochemical. The following applies: 500 pM activated kallikrein enzyme, 300 uM Pro-Phe-Arg-7-amido-4-methylcoumarin substrate, 30 min preincubation, 10 min at RT; read-out: Primary Dose Response Assay: Average EC50. The gist of the method:
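Buffer 20 mM Tris pH 7.5, EDTA, NaCl, PEG-400, Triton X-100; 300 uM Pro-Phe-Arg-AMC; enzyme–inhibitor preincubation 30 min RT. Format one: 500 pM kallikrein, 10 min RT reaction; format two: 5 pM kallikrein, 18 h RT reaction. Fluorescence read at 460 nm (380 nm excitation).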
The EC50 is the midpoint of the concentration-response curve. For `COC(=O)C1CCN(c2cc(C3CC3)nn3cc(Cn4cc(C(=O)NCc5ncn6ccc(Cl)c(F)c56)nn4)nc23)C1` (stereo not shown) [Example I-266, methyl 1-(2-((4-(((7-chloro-8-fluoroimidazo[1,5-a]pyridin-1-yl)methyl)carbamoyl)-1H-1,2,3-triazol-1-yl)methyl)-6-cyclopropylimidazo[1,2-b]pyridazin-8-yl)pyrrolidine-3-carboxylate], the EC50 is less than 1 nM.
In the case of `O=C(O)c1cnn(-c2cc(C3CC3)cn3cc(Cn4cc(C(=O)NCc5ncn6ccc(Cl)c(F)c56)nn4)nc23)c1` [Example I-230, 1-(2-((4-(((7-chloro-8-fluoroimidazo[1,5-a]pyridin-1-yl)methyl)carbamoyl)-1H-1,2,3-triazol-1-yl)methyl)-6-cyclopropylimidazo[1,2-a]pyridin-8-yl)-1H-pyrazole-4-carboxylic acid], the EC50 was less than 1 nM.
In the case of `CS(=O)(=O)c1cc(C2CC2)cn2cc(Cn3cc(C(=O)NCc4ncn5ccc(Cl)cc45)cn3)nc12` [Example I-159, N-((7-chloroimidazo[1,5-a]pyridin-1-yl)methyl)-1-((6-cyclopropyl-8-(methylsulfonyl)imidazo[1,2-a]pyridin-2-yl)methyl)-1H-pyrazole-4-carboxamide] it was less than 1 nM.
In the case of `O=C(NCc1ncn2ccc(Cl)cc12)c1cnn(Cc2cn3nc(C4CC4)ccc3n2)c1` [Example I-15, N-((7-chloroimidazo[1,5-a]pyridin-1-yl)methyl)-1-((6-cyclopropylimidazo[1,2-b]pyridazin-2-yl)methyl)-1H-pyrazole-4-carboxamide] it was less than 1 nM; in that of `COC(=O)CCc1c(C(=O)NCc2ncn3ccc(Cl)cc23)cnn1Cc1cn2cc(C3CC3)ccc2n1` [Example I-82, methyl 3-(4-(((7-chloroimidazo[1,5-a]pyridin-1-yl)methyl)carbamoyl)-1-((6-cyclopropylimidazo[1,2-a]pyridin-2-yl)methyl)-1H-pyrazol-5-yl)propanoate], 10 to 100 nM; in that of `Nc1ccc(C2CC2)c2nc(Cn3cc(C(=O)NCc4ncn5ccc(Cl)cc45)cn3)cn12` [Example I-89, 1-((5-amino-8-cyclopropylimidazo[1,2-a]pyridin-2-yl)methyl)-N-((7-chloroimidazo[1,5-a]pyridin-1-yl)methyl)-1H-pyrazole-4-carboxamide], 100 to 2000 nM.
For `O=C(NCc1ncn2ccc(Cl)cc12)c1cnn(Cc2nc3ccc(C4CC4)cn3n2)c1` [Example I-6, N-((7-chloroimidazo[1,5-a]pyridin-1-yl)methyl)-1-((6-cyclopropyl-[1,2,4]triazolo[1,5-a]pyridin-2-yl)methyl)-1H-pyrazole-4-carboxamide], the 50% effective concentration (EC50) is 1 to 10 nM.
The figure for `CC(C)(Cc1cc(C2CC2)cn2cc(Cn3cc(C(=O)NCc4ncn5ccc(Cl)c(F)c45)cn3)nc12)c1nn[nH]n1` [Example I-238, N-((7-chloro-8-fluoroimidazo[1,5-a]pyridin-1-yl)methyl)-1-((6-cyclopropyl-8-(2-methyl-2-(2H-tetrazol-5-yl)propyl)imidazo[1,2-a]pyridin-2-yl)methyl)-1H-pyrazole-4-carboxamide] is less than 1 nM.
With `O=C(NCc1ncn2ccc(Cl)c(F)c12)c1cn(Cc2cn3cc(C4CC4)cc(-n4cn[nH]c(=O)c4=O)c3n2)nn1` [Example I-247, N-((7-chloro-8-fluoroimidazo[1,5-a]pyridin-1-yl)methyl)-1-((6-cyclopropyl-8-(5,6-dioxo-5,6-dihydro-1,2,4-triazin-4(1H)-yl)imidazo[1,2-a]pyridin-2-yl)methyl)-1H-1,2,3-triazole-4-carboxamide], the concentration for a half-maximal effect (EC50) is less than 1 nM.
In the case of `O=C(NCc1ncn2ccc(Br)cc12)c1cn(Cc2cn3cc(C4CC4)ccc3n2)nc1C(F)F` [Example I-95, N-((7-bromoimidazo[1,5-a]pyridin-1-yl)methyl)-1-((6-cyclopropylimidazo[1,2-a]pyridin-2-yl)methyl)-3-(difluoromethyl)-1H-pyrazole-4-carboxamide] it was 1 to 10 nM.
The figure for `O=C(NCc1ncn2ccc(Cl)c(F)c12)c1cn(Cc2cn3nccc(-n4cnnc4)c3n2)nn1` [Example I-294, 1-((8-(4H-1,2,4-triazol-4-yl)imidazo[1,2-b]pyridazin-2-yl)methyl)-N-((7-chloro-8-fluoroimidazo[1,5-a]pyridin-1-yl)methyl)-1H-1,2,3-triazole-4-carboxamide] is 10 to 100 nM; for `N#CCCc1cc(C2CC2)cn2cc(Cn3cc(C(=O)NCc4ncn5ccc(Cl)cc45)nn3)nc12` [Example I-184, N-((7-chloroimidazo[1,5-a]pyridin-1-yl)methyl)-1-((8-(2-cyanoethyl)-6-cyclopropylimidazo[1,2-a]pyridin-2-yl)methyl)-1H-1,2,3-triazole-4-carboxamide] it is less than 1 nM; for `CCOC(=O)C1CC1c1nn(Cc2cn3cc(C4CC4)ccc3n2)cc1C(=O)NCc1ncn2ccc(Cl)cc12` (stereo not shown) [Example I-113, ethyl 2-(4-(((7-chloroimidazo[1,5-a]pyridin-1-yl)methyl)carbamoyl)-1-((6-cyclopropylimidazo[1,2-a]pyridin-2-yl)methyl)-1H-pyrazol-3-yl)cyclopropane-1-carboxylate] it is 1 to 10 nM.
For `COCc1c(C(=O)NCc2ncn3ccc(Cl)cc23)cnn1Cc1cn2cc(C3CC3)ccc2n1` [Example I-32, N-((7-chloroimidazo[1,5-a]pyridin-1-yl)methyl)-1-((6-cyclopropylimidazo[1,2-a]pyridin-2-yl)methyl)-5-(methoxymethyl)-1H-pyrazole-4-carboxamide], the EC50 lay within 10 to 100 nM.
The figure for `O=C(NCc1ncn2ccc(Br)c(F)c12)c1cn(Cc2cn3cc(C4CC4)cc(F)c3n2)nn1` [Example I-200, N-((7-bromo-8-fluoroimidazo[1,5-a]pyridin-1-yl)methyl)-1-((6-cyclopropyl-8-fluoroimidazo[1,2-a]pyridin-2-yl)methyl)-1H-1,2,3-triazole-4-carboxamide] is less than 1 nM.
On to `O=C(NCc1ncn2ccc(Cl)cc12)c1cnn(Cc2cn3cc(C4CC4)ccc3n2)n1` [Example I-121, N-((7-chloroimidazo[1,5-a]pyridin-1-yl)methyl)-2-((6-cyclopropylimidazo[1,2-a]pyridin-2-yl)methyl)-2H-1,2,3-triazole-4-carboxamide], for which the EC50 was less than 1 nM.
In the case of `Cc1cccc2nc(Cn3cc(C(=O)NCc4ncn5ccc(Cl)cc45)cn3)cn12` [Example I-9, N-((7-chloroimidazo[1,5-a]pyridin-1-yl)methyl)-1-((5-methylimidazo[1,2-a]pyridin-2-yl)methyl)-1H-pyrazole-4-carboxamide] it was 10 to 100 nM.
The figure for `CCOC(=O)CCc1cc(C2CC2)cn2cc(Cn3cc(C(=O)NCc4ncn5ccc(Cl)cc45)cn3)nc12` [Example I-100b, ethyl 3-(2-((4-(((7-chloroimidazo[1,5-a]pyridin-1-yl)methyl)carbamoyl)-1H-pyrazol-1-yl)methyl)-6-cyclopropylimidazo[1,2-a]pyridin-8-yl)propanoate] is less than 1 nM.
In the case of `O=C(NCc1ncn2ccc(Br)cc12)c1cnn(Cc2cn3c(F)c(C4CC4)ccc3n2)c1` [Example I-60, N-((7-bromoimidazo[1,5-a]pyridin-1-yl)methyl)-1-((6-cyclopropyl-5-fluoroimidazo[1,2-a]pyridin-2-yl)methyl)-1H-pyrazole-4-carboxamide] it was less than 1 nM; in that of `C#Cc1cc(C2CC2)cn2cc(Cn3cc(C(=O)NCc4ncn5ccc(Cl)c(F)c45)nn3)nc12` [Example I-228, N-((7-chloro-8-fluoroimidazo[1,5-a]pyridin-1-yl)methyl)-1-((6-cyclopropyl-8-ethynylimidazo[1,2-a]pyridin-2-yl)methyl)-1H-1,2,3-triazole-4-carboxamide], less than 1 nM.
Turning to `O=C(O)CC(c1cn2cc(C3CC3)ccc2n1)n1cc(C(=O)NCc2ncn3ccc(Cl)c(F)c23)nn1` (stereo not shown) [Example I-227b, 3-(4-(((7-chloro-8-fluoroimidazo[1,5-a]pyridin-1-yl)methyl)carbamoyl)-1H-1,2,3-triazol-1-yl)-3-(6-cyclopropylimidazo[1,2-a]pyridin-2-yl)propanoic acid], the EC50 is 100 to 2000 nM.
The figure for `O=C(NCc1ncn2ccc(Cl)c(F)c12)c1cn(Cc2cn3nc(C4CC4)cc(N4CCC(C(=O)O)C4)c3n2)nn1` (stereo not shown) [Example I-267, 1-(2-((4-(((7-chloro-8-fluoroimidazo[1,5-a]pyridin-1-yl)methyl)carbamoyl)-1H-1,2,3-triazol-1-yl)methyl)-6-cyclopropylimidazo[1,2-b]pyridazin-8-yl)pyrrolidine-3-carboxylic acid] is less than 1 nM; for `O=C(NCc1ncn2ccc(Cl)cc12)c1cnn(Cc2cn3cc(C4CC4)cc(CCCO)c3n2)c1` [Example I-107, N-((7-chloroimidazo[1,5-a]pyridin-1-yl)methyl)-1-((6-cyclopropyl-8-(3-hydroxypropyl)imidazo[1,2-a]pyridin-2-yl)methyl)-1H-pyrazole-4-carboxamide] it is less than 1 nM; for `O=C(NCc1ncn2ccc(Cl)cc12)c1cnn(Cc2cn3cc(C4CC4)cc(C4CC4C(=O)O)c3n2)c1` (stereo not shown) [Example I-133, 2-(2-((4-(((7-chloroimidazo[1,5-a]pyridin-1-yl)methyl)carbamoyl)-1H-pyrazol-1-yl)methyl)-6-cyclopropylimidazo[1,2-a]pyridin-8-yl)cyclopropane-1-carboxylic acid] it is less than 1 nM.
The figure for `O=C(NCc1ncn2ccc(Cl)c(F)c12)c1cn(Cc2cn3ncccc3n2)nn1` [Example I-290, N-((7-chloro-8-fluoroimidazo[1,5-a]pyridin-1-yl)methyl)-1-(imidazo[1,2-b]pyridazin-2-ylmethyl)-1H-1,2,3-triazole-4-carboxamide] is 10 to 100 nM.
